Test system: E. coli AG100A
Test: EtBr efflux by real-time fluorometry
Conditions: 20 µM
Description: Control tubes with only cells and cells with and without 0.4% glucose were included. The fluorescence was measured in a Rotor-Gene 3000 and the data was acquired every 30 s for 30 min at 37 °C. The efflux activity was quantified by comparing the fluorescence data obtained under conditions that promote efflux (presence of glucose and absence of efflux inhibitor) with the data from the control in which the bacteria are under conditions of no efflux (presence of an inhibitor and no energy source).

`CN(C)CCCN1c2ccccc2Sc2ccc(Cl)cc21` [CPZ, chlorpromazine] was tested, and the “EtBr fluorescence (Channel Cycling A.530/585hp)” value (from here on “EtBr fluorescence”) (cycle 20, + glucose) was 3.821, the “EtBr fluorescence” value (cycle 20, without glucose) was 5.072 and the “EtBr fluorescence” value (cycle 21, + glucose) was 3.796. For the same compound, the “EtBr fluorescence” value (cycle 21, without glucose) was 5.224, the “EtBr fluorescence” value (cycle 22, + glucose) was 3.843 and the “EtBr fluorescence” value (cycle 22, without glucose) was 5.19. The “EtBr fluorescence” value (cycle 23, + glucose) was 3.825, the “EtBr fluorescence” value (cycle 23, without glucose) was 5.293 and the “EtBr fluorescence” value (cycle 24, + glucose) was 3.796. For the same compound, the “EtBr fluorescence” value (cycle 24, without glucose) was 5.381, the “EtBr fluorescence” value (cycle 25, + glucose) was 3.807 and the “EtBr fluorescence” value (cycle 25, without glucose) was 5.403. The “EtBr fluorescence” value (cycle 26, + glucose) was 3.836, the “EtBr fluorescence” value (cycle 26, without glucose) was 5.546 and the “EtBr fluorescence” value (cycle 27, + glucose) was 3.8908. For the same compound, the “EtBr fluorescence” value (cycle 27, without glucose) was 5.462, the “EtBr fluorescence” value (cycle 28, + glucose) was 3.846 and the “EtBr fluorescence” value (cycle 28, without glucose) was 5.551. The “EtBr fluorescence” value (cycle 29, + glucose) was 3.901, the “EtBr fluorescence” value (cycle 29, without glucose) was 5.7035 and the “EtBr fluorescence” value (cycle 30, + glucose) was 3.8738. For the same compound, the “EtBr fluorescence” value (cycle 30, without glucose) was 5.804, the “EtBr fluorescence” value (cycle 31, + glucose) was 3.964 and the “EtBr fluorescence” value (cycle 31, without glucose) was 5.758. The “EtBr fluorescence” value (cycle 32, + glucose) was 3.895, the “EtBr fluorescence” value (cycle 32, without glucose) was 5.843 and the “EtBr fluorescence” value (cycle 33, + glucose) was 3.921. For the same compound, the “EtBr fluorescence” value (cycle 33, without glucose) was 5.872, the “EtBr fluorescence” value (cycle 34, + glucose) was 3.877 and the “EtBr fluorescence” value (cycle 34, without glucose) was 5.974. The “EtBr fluorescence” value (cycle 35, + glucose) was 3.838, the “EtBr fluorescence” value (cycle 35, without glucose) was 6.003 and the “EtBr fluorescence” value (cycle 36, + glucose) was 3.873. The “EtBr fluorescence” value (cycle 36, without glucose) was 6.052, the “EtBr fluorescence” value (cycle 37, + glucose) was 3.865 and the “EtBr fluorescence” value (cycle 37, without glucose) was 6.051. The “EtBr fluorescence” value (cycle 38, + glucose) was 3.927, the “EtBr fluorescence” value (cycle 38, without glucose) was 6.151 and the “EtBr fluorescence” value (cycle 39, + glucose) was 3.914. The “EtBr fluorescence” value (cycle 39, without glucose) was 6.208, the “EtBr fluorescence” value (cycle 40, + glucose) was 4.038 and the “EtBr fluorescence” value (cycle 40, without glucose) was 6.311. For the same compound, the “EtBr fluorescence” value (cycle 41, + glucose) was 3.929, the “EtBr fluorescence” value (cycle 41, without glucose) was 6.369 and the “EtBr fluorescence” value (cycle 42, + glucose) was 3.925. The “EtBr fluorescence” value (cycle 42, without glucose) was 6.396, the “EtBr fluorescence” value (cycle 43, + glucose) was 3.906 and the “EtBr fluorescence” value (cycle 43, without glucose) was 6.421. For the same compound, the “EtBr fluorescence” value (cycle 44, + glucose) was 3.836, the “EtBr fluorescence” value (cycle 44, without glucose) was 6.524 and the “EtBr fluorescence” value (cycle 45, without glucose) was 6.6507. For the same compound, the “EtBr fluorescence” value (cycle 46, without glucose) was 6.69, the “EtBr fluorescence” value (cycle 47, without glucose) was 6.633 and the “EtBr fluorescence” value (cycle 48, without glucose) was 6.748. For the same compound, the “EtBr fluorescence” value (cycle 49, without glucose) was 6.869, the “EtBr fluorescence” value (cycle 50, without glucose) was 6.908 and the “EtBr fluorescence” value (cycle 51, without glucose) was 6.927. For the same compound, the “EtBr fluorescence” value (cycle 52, without glucose) was 6.871, the “EtBr fluorescence” value (cycle 53, without glucose) was 6.976 and the “EtBr fluorescence” value (cycle 54, without glucose) was 6.9692. The “EtBr fluorescence” value (cycle 55, without glucose) was 7.074, the “EtBr fluorescence” value (cycle 56, without glucose) was 7.021 and the “EtBr fluorescence” value (cycle 57, without glucose) was 7.172. The “EtBr fluorescence” value (cycle 58, without glucose) was 7.396, the “EtBr fluorescence” value (cycle 59, without glucose) was 7.291 and the “EtBr fluorescence” value (cycle 60, without glucose) was 7.378. The “EtBr fluorescence” value (cycle 61, without glucose) was 7.37.

Reference: PMC5433425 (PeerJ, 2017)
